We go through 53 compounds from ChEMBL document CHEMBL5728748 (2021).

The assay in a line: TarO Biochemical Enzymatic Assay: The TarO biochemical enzymatic assay is a liquid chromatography-mass spectroscopy (LC-MS) based end point assay that measures C55-P-P-GlcNAc (LIPID III) production. The TarO biochemical enzymatic assay was performed in a 384-well microtiter plate (Labcyte) with a reaction volume of 20 μl. The reaction mix contained 0.1 μgs/μl of TarO membrane preparation derived from MRSA COL (lysostaphin/lysozyme treated, centrifuged at 40K rpm, and re-suspended in 50 mM Tris pH 7.5, 10 mM MgCl2), 1500 μM UDP-GlcNAc, x 75 μM C55-P substrates in 83 mM Tris pH 8.0, 6.7 mM MgCl2, 6 mM CHAPS, and 8.3% DMSO buffer. The enzyme reactions were quenched by extraction in 40 μl of 1-pentanol containing 0.04 μM […] C55-PP-GlcNAc, which was used as an internal standard. A 10 μl volume of the quenched reaction mixture (pH≈3) from each well was injected onto a reversed-phase column (C4, 5 m, 2.1×50 mm, Thermo Scientific Biobacis-4) and eluted using a NH4Ac/H2O/MeOH gradient (solvent A: 10 mM NH4Ac in water, pH 5.6; solvent B: NH4Ac (1 M)-Isopropanol (1:90, v/v, pH 5.6). The HPLC conditions were as follows: 15% solvent B for 15 seconds followed by a gradient to 90% solvent B in 90 seconds; then solvent B was kept at 95% for 10 seconds followed by a gradient to 8% solvent B in 0.1 minute. The column was then equilibrated at 15% B for 1 minute before the next injection. The flow rate was kept constant at 600 μl/minute. Mass spectrometric detection was carried out in the negative-ion mode using selected reaction monitoring (SRM). Typical mass spectrometric conditions were as follows: heated capillary temperature, 210° C.; spray voltage, 2500 V; desolvation gas (N2), 40 l/h; auxiliary gas (N2), 35 l/h. Selected ion current (SIC) chromatograms of C55-PP-GlcNAc and internal standard 15C C55-PP-GlcNAc were plotted and integrated using LCQuan incorporated in Xcalibur software (ThermoFinnigan). The linearity of C55-PP-GlcNAc concentration versus mass spectrometric signal (AC55-PP-GlcNAc/A15C-C55-PP-GlcNAc) was determined with purified C55-PP-GlcNAc. The IC50 values were calculated using the nonlinear regression analysis (sigmoidal dose response fit allowing for a variable slope) of percent inhibition data with minimum and maximum values set to 0 and 100 percent.
Take `C[C@H]1[C@@H](c2cc(C(F)(F)F)cc(C(F)(F)F)c2)OC(=O)N1C(=O)NCc1cncc2ccccc12`: the 50% inhibitory concentration (IC50) (as a rule, the concentration needed to halve the response being measured) was 0.03 µM.
To `C[C@H]1[C@@H](c2cc(F)cc(C(F)(F)F)c2)OC(=O)N1C(=O)NCc1cncc2ccccc12` belongs 0.01 µM; to `C[C@H]1[C@@H](c2cccc(C(F)(F)F)c2)OC(=O)N1C(=O)NCc1cncc2ccccc12`, 0.16 µM; to `C[C@H]1[C@@H](c2cccc(C(F)(F)F)c2)OC(=O)N1C(=O)NCc1cncc2cccnc12`, 0.13 µM.
To `C[C@H]1[C@@H](c2cc(C(F)(F)F)cc(C(F)(F)F)c2)OC(=O)N1C(=O)NCc1cncc2cccnc12` belongs 0.01 µM.
Under `O=C(NCc1cncc2cccnc12)N1C(=O)O[C@H](c2cc(C(F)(F)F)cc(C(F)(F)F)c2)[C@@H]1CO` stands 0.14 µM; under `C[C@H]1[C@@H](c2cc(F)cc(C(F)(F)F)c2)OC(=O)N1C(=O)NCc1cnc2sccn12`, 77 µM.
With `O=C(NCc1cccc2cncnc12)N1C(=O)O[C@H](c2cc(C(F)(F)F)cc(C(F)(F)F)c2)[C@@H]1CO`, the IC50 is 0.08 µM.
To `C[C@H]1[C@@H](c2cc(F)cc(C(F)(F)F)c2)OC(=O)N1C(=O)NCc1cccc(N(C)C)c1` belongs 0.04 µM; to `C[C@H]1[C@@H](c2cc(F)cc(C(F)(F)F)c2)OC(=O)N1C(=O)NCc1cccc2cc[nH]c12`, 0.06 µM.
Under `COc1cncc(CNC(=O)N2C(=O)O[C@H](c3cc(C(F)(F)F)cc(C(F)(F)F)c3)[C@@H]2CO)c1OC` stands 0.03 µM.
For the compound `C[C@H]1[C@@H](c2cc(F)cc(Br)c2)OC(=O)N1C(=O)NCc1cncc2ccccc12`, the IC50 was 0.24 µM.
On to `C[C@H]1[C@@H](c2cc(F)cc(C(F)(F)F)c2)OC(=O)N1C(=O)NCc1ccccc1OC(F)F`, for which the IC50 is 0.02 µM.
Consider `C[C@H]1[C@@H](c2cc(F)cc(C(F)(F)F)c2)OC(=O)N1C(=O)NCc1ccccc1C(F)(F)F`, for which the IC50 was 0.03 µM.
Regarding `C[C@H]1[C@@H](c2cc(C(F)(F)F)cc(C(F)(F)F)c2)OC(=O)N1C(=O)NCC1CCCc2ccccc21` (stereo partly drawn), the IC50 is 0.16 µM.
Turning to `C[C@H]1[C@@H](c2cc(C(F)(F)F)cc(C(F)(F)F)c2)OC(=O)N1C(=O)NCc1cccc2ccnn12`, the IC50 is 0.01 µM.
To `C[C@H]1[C@@H](c2cc(C(F)(F)F)cc(C(F)(F)F)c2)OC(=O)N1C(=O)NCc1cccc2c1OCCO2` belongs 0.01 µM; to `C[C@H]1[C@@H](c2cc(C(F)(F)F)cc(C(F)(F)F)c2)OC(=O)N1C(=O)NCc1ncccc1Br`, 0.26 µM; to `COc1cc([C@H]2OC(=O)N(C(=O)NCc3cncc4cccnc34)[C@H]2CO)cc(C(F)(F)F)c1`, 1.24 µM.
Under `C[C@H]1[C@@H](c2cc(C(F)(F)F)cc(C(F)(F)F)c2)OC(=O)N1C(=O)NCc1cnc2c(c1)CCC2` stands 1.87 µM.
Under `C[C@H]1[C@@H](c2cc(F)cc(C(F)(F)F)c2)OC(=O)N1C(=O)N(O)Cc1cccc2ccccc12` stands 7.76 µM; under `C[C@H]1[C@@H](c2cc(C(F)(F)F)cc(C(F)(F)F)c2)OC(=O)N1C(=O)NCc1nccc2ccoc12`, 0.15 µM.
As to `Cc1ccccc1CNC(=O)N1C(=O)O[C@H](c2cc(F)cc(C(F)(F)F)c2)[C@@H]1C`, the half-inhibitory concentration (IC50) is 0.14 µM.
Regarding `C[C@H]1[C@@H](c2cc(F)cc(C(F)(F)F)c2)OC(=O)N1C(=O)NCc1cccc2cncnc12`, the half-maximal inhibitory concentration (IC50) is 0.34 µM.
Under `C[C@H]1[C@@H](c2cc(F)cc(C(F)(F)F)c2)OC(=O)N1C(=O)NCc1ccccc1-n1cccc1` stands 0.45 µM.
As for `C[C@H]1[C@@H](c2cc(F)cc(C(F)(F)F)c2)OC(=O)N1C(=O)NCc1cccc2c1C(=O)NC2`, the 50% inhibitory concentration (IC50) is 1.69 µM.
To `C[C@H]1[C@@H](c2cc(C(F)(F)F)cc(C(F)(F)F)c2)OC(=O)N1C(=O)NCc1cccnc1N1CCOCC1` belongs 3.61 µM; to `COc1ccccc1CNC(=O)N1C(=O)O[C@H](c2cc(F)cc(C(F)(F)F)c2)[C@@H]1C`, 0.03 µM; to `C[C@H]1[C@@H](c2cc(F)cc(C(F)(F)F)c2)OC(=O)N1C(=O)NCc1cccc2c1OCCO2`, 0.05 µM.
Under `Cc1cccnc1CCNC(=O)N1C(=O)O[C@H](c2cc(C(F)(F)F)cc(C(F)(F)F)c2)[C@@H]1C` stands 1.78 µM; under `C[C@H]1[C@@H](c2cc(F)cc(C3CC3)c2)OC(=O)N1C(=O)NCc1cncc2ccccc12`, 0.24 µM.
Under `Cc1nc(C(C)C)sc1CNC(=O)N1C(=O)O[C@H](c2cc(F)cc(C(F)(F)F)c2)[C@@H]1C` stands 0.16 µM; under `COc1cccnc1CNC(=O)N1C(=O)O[C@H](c2cc(C(F)(F)F)cc(C(F)(F)F)c2)[C@@H]1C`, 0.91 µM.
`C[C@H]1[C@@H](c2cc(F)cc(C(F)(F)F)c2)OC(=O)N1C(=O)NCc1cccc2nccnc12`: the IC50 is 0.19 µM.
With `C[C@H]1[C@@H](c2cc(F)cc(C(F)(F)F)c2)OC(=O)N1C(=O)NCc1ccnc2ccccc12`, the IC50 was 0.2 µM.
With `C[C@H]1[C@@H](c2cc(F)cc(C(F)(F)F)c2)OC(=O)N1C(=O)NCc1nccc2sccc12`, the IC50 is 0.12 µM.
To `C[C@H]1[C@@H](c2cc(F)cc(C(F)(F)F)c2)OC(=O)N1C(=O)NCc1ccccc1CN(C)C` belongs 0.69 µM; to `Cc1cccnc1CNC(=O)N1C(=O)O[C@H](c2cc(C(F)(F)F)cc(C(F)(F)F)c2)[C@@H]1C`, 0.44 µM.
For the compound `C[C@H]1[C@@H](c2cc(C(F)(F)F)cc(C(F)(F)F)c2)OC(=O)N1C(=O)NCc1cccc2nccnc12`, the IC50 was 0.05 µM.
To `Cc1nc(C)c(CNC(=O)N2C(=O)O[C@H](c3cc(F)cc(C(F)(F)F)c3)[C@@H]2C)s1` belongs 2.65 µM; to `C[C@H]1[C@@H](c2cc(F)cc(C(F)(F)F)c2)OC(=O)N1C(=O)NCc1ccccc1Cl`, 0.17 µM; to `CCOc1ccccc1CNC(=O)N1C(=O)O[C@H](c2cc(F)cc(C(F)(F)F)c2)[C@@H]1C`, 0.1 µM.
Under `C[C@H]1[C@@H](c2cccc(C(F)F)c2)OC(=O)N1C(=O)NCc1cncc2ccccc12` stands 0.49 µM.
Under `C[C@H]1[C@@H](c2cc(F)cc(C(F)(F)F)c2)OC(=O)N1C(=O)NCc1cccc2ccccc12` stands 0.02 µM; under `COc1ccccc1CNC(=O)N1C(=O)O[C@H](c2cccc(C(F)(F)F)c2)[C@@H]1C`, 0.22 µM.
For the compound `Cc1cnc(F)c(CNC(=O)N2C(=O)O[C@H](c3cc(C(F)(F)F)cc(C(F)(F)F)c3)[C@@H]2C)c1`, the IC50 was 0.61 µM.
Consider `C[C@H]1[C@@H](c2cc(F)cc(C(F)(F)F)c2)OC(=O)N1C(=O)NCc1cccc2cn[nH]c12`, for which the IC50 is 1.42 µM.
To `C[C@H]1[C@@H](c2cccc(C(C)(F)F)c2)OC(=O)N1C(=O)NCc1cncc2ccccc12` belongs 0.25 µM; to `C[C@H]1[C@@H](c2cc(F)cc(C(F)(F)F)c2)OC(=O)N1C(=O)NCc1ccnc2cccnc12`, 0.54 µM.
For the compound `COc1cc([C@H]2OC(=O)N(C(=O)NCc3cncc4ccccc34)[C@H]2CO)cc(C(F)(F)F)c1`, the concentration for half-maximal inhibition (IC50) was 0.2 µM.
As for `C[C@H]1[C@@H](c2cc(F)cc(C(F)(F)F)c2)OC(=O)N1C(=O)NCc1ccccc1[N+](=O)[O-]`, the IC50 was 0.01 µM.
To `C[C@H]1[C@@H](c2cc(F)cc(C(F)(F)F)c2)OC(=O)N1C(=O)NCc1cccc2ncccc12` belongs 0.85 µM.
To `C[C@H]1[C@@H](c2cc(F)cc(C(F)(F)F)c2)OC(=O)N1C(=O)NCc1ccccc1S(C)(=O)=O` belongs 2.97 µM.
